This note sets out measurements from BindingDB's records for doi:10.1016/0896-6273(94)90055-8 (Massachusetts General Hospital, 1994).

Chain of Melatonin receptor type 1A (P48040 whole entry): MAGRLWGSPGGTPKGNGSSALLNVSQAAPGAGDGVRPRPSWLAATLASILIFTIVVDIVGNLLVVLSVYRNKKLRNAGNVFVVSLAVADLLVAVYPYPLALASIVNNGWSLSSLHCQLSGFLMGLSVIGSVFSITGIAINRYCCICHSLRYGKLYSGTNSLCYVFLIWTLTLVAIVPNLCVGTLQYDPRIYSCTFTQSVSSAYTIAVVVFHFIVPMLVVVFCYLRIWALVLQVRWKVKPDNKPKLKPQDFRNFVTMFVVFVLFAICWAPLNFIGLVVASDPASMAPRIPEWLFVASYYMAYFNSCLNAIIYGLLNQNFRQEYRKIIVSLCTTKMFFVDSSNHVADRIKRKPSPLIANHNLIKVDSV

One test concerns the target Melatonin receptor type 1A (Ovis aries, UniProt P48040).
Turning to `COc1cc2c(CCNC(C)=O)c[nH]c2cc1Cl`, the inhibition constant Ki (commonly the dissociation constant of the complex between target and ligand, obtained from inhibition or displacement) was determined as 0.25 nM. This counts as sub-nanomolar.
The same measure, in the same setting: in the case of `CC(=O)n1cc(CCN)c2cc(O)ccc21` [NSC_260803] it was 140 nM; in that of `COc1ccc2[nH]c(I)c(CCNC(C)=O)c2c1`, 0.03 nM; in that of `NCCc1c[nH]c2ccc(O)cc12` [[3H]-5-HT], greater than 10000 nM.

For another test, the target named is T1, Melatonin receptor type 1B (Homo sapiens, UniProt P49286).
T1 sequence (P49286 whole entry): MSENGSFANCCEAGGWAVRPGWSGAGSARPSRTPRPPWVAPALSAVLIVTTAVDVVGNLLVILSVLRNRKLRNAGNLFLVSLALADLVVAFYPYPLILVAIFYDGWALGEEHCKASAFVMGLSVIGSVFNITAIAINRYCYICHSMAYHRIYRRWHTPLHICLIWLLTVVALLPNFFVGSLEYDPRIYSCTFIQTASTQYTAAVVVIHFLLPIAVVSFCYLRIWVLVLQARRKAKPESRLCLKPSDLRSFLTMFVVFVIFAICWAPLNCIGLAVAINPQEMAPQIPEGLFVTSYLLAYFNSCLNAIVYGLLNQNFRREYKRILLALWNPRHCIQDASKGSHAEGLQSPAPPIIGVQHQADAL
As for `CC(=O)n1cc(CCN)c2cc(O)ccc21` [NSC_260803], the inhibitory constant (Ki) came to 170 nM.
Same read-out and setting: in the case of `COc1cc2c(CCNC(C)=O)c[nH]c2cc1O` [melatonin, 6-Hydroxy] it was 2 nM.
